How the values were obtained:
[1] = tested on: human CRC tumor organoids; test: Survival of human CRC tumor organoids in response to 5-FU in the absence or presence of 5-BDBD; type: cell-based; settings: colorectal cancer organoids that do not express P2X4 protein; 5-FU +/- P2X4 inhibitor (Fig. 3C)
From the text: (§1) Survival of SU-DHL5 cells in response to doxorubicin in the absence or presence of 5-BDBD (B). Survival of human CRC tumor organoids in response to 5-FU in the absence or presence of 5-BDBD (C).
(§2) The inventors had previously shown that blocking P2X4 would sensitize organoids to 5-FU treatment (Schmitt et al, Nature, 2022). The inventors now confirmed that these organoids indeed express P2X4 (Fig. 3A, CRC-organoid #1).

[2] = tested on: human CRC tumor organoids; settings: organoids that express P2X4 (CRC-organoid #1); previously shown, Schmitt et al, Nature, 2022; cited from earlier work
SU-DHL5 lymphoma cells = test: Survival of SU-DHL5 cells in response to doxorubicin in the absence or presence of 5-BDBD; type: cell-based; settings: lymphoma cells that do not express P2X4 protein; doxorubicin +/- 5-BDBD (Fig. 3B)
From the text: as §1, §2

[3] = tested on: ATP-induced S6 phosphorylation in PDTOs; settings: selective P2X4, P2X1 or P2X7 inhibition; cited from earlier work

| Structure (SMILES) | sensitization towards P2X4 inhibition [1] | sensitization of organoids to 5-FU treatment [2] | sensitization towards P2X4 inhibition (SU-DHL5 lymphoma cells) | ATP-induced S6 phosphorylation [3] |
| --- | --- | --- | --- | --- |
| O=C1CN=C(c2cccc(Br)c2)c2oc3ccccc3c2N1 [5-BDBD, 5-(3-Bromophenyl)-1,3-dihydro-2H-Benzofuro[3,2-e]-1,4-diazepin-2-one] | no sensitization | sensitize | no sensitization | reduced |
| Clc1cccc(-c2nnnn2Cc2cccnc2)c1Cl [A-438079] |  |  |  | no effect |
| O=C(Nc1ccc(C(=O)Nc2ccc(C(=O)Nc3ccc(S(=O)(=O)O)c4cc(S(=O)(=O)O)cc(S(=O)(=O)O)c34)cc2)cc1)Nc1ccc(C(=O)Nc2ccc(C(=O)Nc3ccc(S(=O)(=O)O)c4cc(S(=O)(=O)O)cc(S(=O)(=O)O)c34)cc2)cc1 [NF279] |  |  |  | no effect |

Reference: patent publication EP4542231A1, “METHODS FOR IDENTIFYING AND STRATIFYING CANCERS AND CANCER PATIENTS BASED ON P2X4 RECEPTOR EXPRESSION” (Johann-Wolfgang-Goethe-Universität Frankfurt am Main, priority 2023, dated 2025)
